Conditions in all cases: Compound concentration 1000.0 nM
The target of assay [1] is Cyclin-G-associated kinase (Homo sapiens) (UniProt O14976).
In assay [2] the target is T1, Serine/threonine-protein kinase BRSK2 (Homo sapiens) (UniProt Q8IWQ3).
T1 sequence (whole entry): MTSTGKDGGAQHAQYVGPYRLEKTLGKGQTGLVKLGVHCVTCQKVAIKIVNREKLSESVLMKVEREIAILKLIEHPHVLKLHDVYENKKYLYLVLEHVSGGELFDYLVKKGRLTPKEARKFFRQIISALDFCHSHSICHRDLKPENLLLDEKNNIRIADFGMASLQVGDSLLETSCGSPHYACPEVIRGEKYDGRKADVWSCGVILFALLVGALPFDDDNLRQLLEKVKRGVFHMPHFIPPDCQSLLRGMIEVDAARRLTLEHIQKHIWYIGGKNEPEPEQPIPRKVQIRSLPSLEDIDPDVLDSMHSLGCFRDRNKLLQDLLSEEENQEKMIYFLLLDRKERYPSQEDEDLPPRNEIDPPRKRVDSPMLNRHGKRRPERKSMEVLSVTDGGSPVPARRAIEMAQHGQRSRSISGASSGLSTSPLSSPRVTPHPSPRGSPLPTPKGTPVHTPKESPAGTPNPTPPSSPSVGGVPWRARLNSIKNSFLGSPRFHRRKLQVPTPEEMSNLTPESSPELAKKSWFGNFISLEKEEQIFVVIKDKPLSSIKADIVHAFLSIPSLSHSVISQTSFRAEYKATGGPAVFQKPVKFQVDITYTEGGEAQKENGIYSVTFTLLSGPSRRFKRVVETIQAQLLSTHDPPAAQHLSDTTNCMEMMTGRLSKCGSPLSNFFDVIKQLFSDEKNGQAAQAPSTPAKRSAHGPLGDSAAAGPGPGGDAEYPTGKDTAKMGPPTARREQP

The target of assay [3] is Ribosomal protein S6 kinase alpha-3 (Homo sapiens, UniProt P51812).
Assay [4] concerns the target ALK tyrosine kinase receptor (Homo sapiens) (UniProt Q9UM73).
The target of assay [5] is Serine/threonine-protein kinase MARK2 (Homo sapiens) (UniProt Q7KZI7).
Assay [6] addresses Mitogen-activated protein kinase 14 (Homo sapiens) (UniProt Q16539).
Assay [7] has as its system Tyrosine-protein kinase ABL1 (Homo sapiens), P00519 [M351T].
The target in assay [8] is Wee1-like protein kinase (Homo sapiens) (UniProt P30291).
The target of assay [9] is Cyclin-dependent kinase 17 (Homo sapiens) (UniProt Q00537).
For assay [10], the target named is Ephrin type-B receptor 6 (Homo sapiens) (UniProt O15197).
In assay [11] the target is Tyrosine-protein kinase ABL1 (Homo sapiens) (UniProt P00519).
Assay [12] has as its target Mitogen-activated protein kinase 15 (Homo sapiens) (UniProt Q8TD08).
The target of assay [13] is T2, Rhodopsin kinase GRK1 (Homo sapiens) (UniProt Q15835).
T2 sequence (whole entry): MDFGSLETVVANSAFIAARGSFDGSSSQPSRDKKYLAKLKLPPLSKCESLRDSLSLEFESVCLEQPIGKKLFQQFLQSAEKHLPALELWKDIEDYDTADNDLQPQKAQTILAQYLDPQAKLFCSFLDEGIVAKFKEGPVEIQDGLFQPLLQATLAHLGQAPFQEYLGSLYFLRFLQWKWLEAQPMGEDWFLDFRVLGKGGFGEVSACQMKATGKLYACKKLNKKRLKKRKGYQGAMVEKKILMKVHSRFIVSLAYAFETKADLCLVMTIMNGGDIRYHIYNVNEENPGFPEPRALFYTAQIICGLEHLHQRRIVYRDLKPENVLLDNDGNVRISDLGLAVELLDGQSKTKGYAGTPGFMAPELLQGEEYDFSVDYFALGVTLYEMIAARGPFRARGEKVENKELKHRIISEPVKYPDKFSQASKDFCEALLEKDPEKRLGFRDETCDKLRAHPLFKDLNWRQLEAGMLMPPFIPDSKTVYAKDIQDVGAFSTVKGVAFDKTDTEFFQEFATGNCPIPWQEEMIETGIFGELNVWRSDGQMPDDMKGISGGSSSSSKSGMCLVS

Assay [14] addresses T3, Serine/threonine-protein kinase 17B (Homo sapiens) (UniProt O94768).
T3 sequence (whole entry): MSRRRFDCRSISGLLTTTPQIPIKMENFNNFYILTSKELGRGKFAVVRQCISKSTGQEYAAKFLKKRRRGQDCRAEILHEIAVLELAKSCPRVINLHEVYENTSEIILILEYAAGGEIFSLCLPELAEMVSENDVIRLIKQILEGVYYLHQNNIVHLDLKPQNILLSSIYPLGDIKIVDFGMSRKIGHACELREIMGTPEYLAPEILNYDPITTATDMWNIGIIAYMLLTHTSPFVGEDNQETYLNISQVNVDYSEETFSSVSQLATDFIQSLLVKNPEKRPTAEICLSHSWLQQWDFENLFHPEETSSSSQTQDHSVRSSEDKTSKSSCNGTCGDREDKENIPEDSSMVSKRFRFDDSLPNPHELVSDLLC

Sequence of Mitogen-activated protein kinase 15 (Homo sapiens) (Q8TD08 whole entry): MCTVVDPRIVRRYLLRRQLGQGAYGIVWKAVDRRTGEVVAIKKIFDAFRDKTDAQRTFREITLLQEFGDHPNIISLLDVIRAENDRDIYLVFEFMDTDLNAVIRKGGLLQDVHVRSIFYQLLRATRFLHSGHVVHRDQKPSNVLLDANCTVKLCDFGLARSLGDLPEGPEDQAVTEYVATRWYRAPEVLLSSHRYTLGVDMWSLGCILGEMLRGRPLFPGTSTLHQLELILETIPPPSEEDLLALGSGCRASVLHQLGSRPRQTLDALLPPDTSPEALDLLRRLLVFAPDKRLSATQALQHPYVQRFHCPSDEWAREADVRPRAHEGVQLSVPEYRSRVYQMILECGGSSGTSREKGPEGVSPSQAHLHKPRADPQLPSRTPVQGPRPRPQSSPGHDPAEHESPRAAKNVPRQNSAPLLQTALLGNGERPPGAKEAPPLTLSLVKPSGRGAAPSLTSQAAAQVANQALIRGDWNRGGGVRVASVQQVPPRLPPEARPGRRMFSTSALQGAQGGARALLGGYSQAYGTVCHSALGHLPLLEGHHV
Sequence of Serine/threonine-protein kinase MARK2 (Homo sapiens) (Q7KZI7 whole entry): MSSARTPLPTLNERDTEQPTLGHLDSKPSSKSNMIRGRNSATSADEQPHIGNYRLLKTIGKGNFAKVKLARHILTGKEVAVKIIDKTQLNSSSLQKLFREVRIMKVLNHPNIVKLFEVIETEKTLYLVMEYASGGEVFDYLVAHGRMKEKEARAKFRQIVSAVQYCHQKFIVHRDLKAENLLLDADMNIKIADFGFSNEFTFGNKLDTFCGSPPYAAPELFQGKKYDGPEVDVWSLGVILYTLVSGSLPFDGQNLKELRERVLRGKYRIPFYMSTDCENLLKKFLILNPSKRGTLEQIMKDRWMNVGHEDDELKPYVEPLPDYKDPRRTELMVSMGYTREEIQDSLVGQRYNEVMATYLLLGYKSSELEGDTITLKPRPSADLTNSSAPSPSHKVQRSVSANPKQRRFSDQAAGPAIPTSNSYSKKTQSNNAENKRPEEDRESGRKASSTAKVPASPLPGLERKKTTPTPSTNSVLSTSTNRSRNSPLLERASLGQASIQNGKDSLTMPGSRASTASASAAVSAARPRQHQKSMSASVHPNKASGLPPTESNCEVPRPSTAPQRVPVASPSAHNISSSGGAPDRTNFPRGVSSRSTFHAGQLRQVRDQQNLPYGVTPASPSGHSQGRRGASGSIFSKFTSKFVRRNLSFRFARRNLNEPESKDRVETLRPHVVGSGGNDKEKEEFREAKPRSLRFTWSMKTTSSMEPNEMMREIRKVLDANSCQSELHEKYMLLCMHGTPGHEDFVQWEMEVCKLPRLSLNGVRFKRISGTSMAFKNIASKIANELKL
Sequence of Mitogen-activated protein kinase 14 (Homo sapiens) (Q16539 whole entry): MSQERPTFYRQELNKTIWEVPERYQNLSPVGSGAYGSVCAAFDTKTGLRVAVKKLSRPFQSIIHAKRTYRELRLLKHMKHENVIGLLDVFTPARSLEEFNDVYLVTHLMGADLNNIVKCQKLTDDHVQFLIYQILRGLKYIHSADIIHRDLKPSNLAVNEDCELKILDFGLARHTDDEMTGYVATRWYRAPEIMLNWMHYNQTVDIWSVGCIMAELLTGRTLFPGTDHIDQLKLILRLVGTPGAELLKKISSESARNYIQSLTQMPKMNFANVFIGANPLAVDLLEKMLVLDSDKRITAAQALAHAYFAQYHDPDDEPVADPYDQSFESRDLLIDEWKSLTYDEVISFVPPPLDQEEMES
Sequence of Ribosomal protein S6 kinase alpha-3 (P51812 whole entry): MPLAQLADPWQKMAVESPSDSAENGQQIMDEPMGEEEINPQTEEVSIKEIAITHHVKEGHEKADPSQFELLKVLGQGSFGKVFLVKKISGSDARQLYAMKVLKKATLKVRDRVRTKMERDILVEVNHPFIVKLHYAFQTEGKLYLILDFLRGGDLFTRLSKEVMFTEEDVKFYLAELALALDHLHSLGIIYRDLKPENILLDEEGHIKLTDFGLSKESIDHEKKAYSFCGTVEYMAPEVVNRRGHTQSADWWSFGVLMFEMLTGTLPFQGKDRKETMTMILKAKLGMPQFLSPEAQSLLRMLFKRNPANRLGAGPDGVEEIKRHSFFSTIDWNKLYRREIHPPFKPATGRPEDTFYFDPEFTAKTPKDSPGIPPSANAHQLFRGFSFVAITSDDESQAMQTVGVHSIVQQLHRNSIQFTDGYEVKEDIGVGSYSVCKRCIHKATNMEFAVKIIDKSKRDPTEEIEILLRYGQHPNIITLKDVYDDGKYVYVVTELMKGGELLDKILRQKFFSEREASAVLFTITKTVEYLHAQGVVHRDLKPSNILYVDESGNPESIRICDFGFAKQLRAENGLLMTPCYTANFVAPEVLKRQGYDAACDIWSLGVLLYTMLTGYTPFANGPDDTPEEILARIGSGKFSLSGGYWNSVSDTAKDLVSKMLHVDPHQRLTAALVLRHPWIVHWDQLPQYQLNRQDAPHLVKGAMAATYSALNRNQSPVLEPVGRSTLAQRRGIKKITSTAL
Sequence of Wee1-like protein kinase (Homo sapiens) (P30291 whole entry, looked up): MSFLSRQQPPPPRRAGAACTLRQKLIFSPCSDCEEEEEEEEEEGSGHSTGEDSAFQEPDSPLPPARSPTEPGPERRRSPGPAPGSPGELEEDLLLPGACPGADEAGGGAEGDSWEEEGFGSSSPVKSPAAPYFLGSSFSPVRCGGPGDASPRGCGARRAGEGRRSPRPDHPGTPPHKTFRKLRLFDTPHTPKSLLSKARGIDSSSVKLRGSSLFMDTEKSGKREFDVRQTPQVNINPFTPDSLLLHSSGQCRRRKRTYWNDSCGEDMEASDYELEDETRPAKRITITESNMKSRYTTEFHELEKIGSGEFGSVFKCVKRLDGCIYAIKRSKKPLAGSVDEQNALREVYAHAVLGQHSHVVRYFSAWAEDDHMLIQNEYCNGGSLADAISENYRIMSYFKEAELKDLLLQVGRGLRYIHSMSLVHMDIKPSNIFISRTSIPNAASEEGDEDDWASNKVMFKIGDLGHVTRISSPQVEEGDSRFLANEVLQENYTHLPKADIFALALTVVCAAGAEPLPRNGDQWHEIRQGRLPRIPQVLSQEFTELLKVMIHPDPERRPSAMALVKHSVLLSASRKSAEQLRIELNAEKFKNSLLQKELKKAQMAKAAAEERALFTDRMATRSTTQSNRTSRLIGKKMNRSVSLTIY
Sequence of ALK tyrosine kinase receptor (Homo sapiens) (Q9UM73 19-1620 limits assumed): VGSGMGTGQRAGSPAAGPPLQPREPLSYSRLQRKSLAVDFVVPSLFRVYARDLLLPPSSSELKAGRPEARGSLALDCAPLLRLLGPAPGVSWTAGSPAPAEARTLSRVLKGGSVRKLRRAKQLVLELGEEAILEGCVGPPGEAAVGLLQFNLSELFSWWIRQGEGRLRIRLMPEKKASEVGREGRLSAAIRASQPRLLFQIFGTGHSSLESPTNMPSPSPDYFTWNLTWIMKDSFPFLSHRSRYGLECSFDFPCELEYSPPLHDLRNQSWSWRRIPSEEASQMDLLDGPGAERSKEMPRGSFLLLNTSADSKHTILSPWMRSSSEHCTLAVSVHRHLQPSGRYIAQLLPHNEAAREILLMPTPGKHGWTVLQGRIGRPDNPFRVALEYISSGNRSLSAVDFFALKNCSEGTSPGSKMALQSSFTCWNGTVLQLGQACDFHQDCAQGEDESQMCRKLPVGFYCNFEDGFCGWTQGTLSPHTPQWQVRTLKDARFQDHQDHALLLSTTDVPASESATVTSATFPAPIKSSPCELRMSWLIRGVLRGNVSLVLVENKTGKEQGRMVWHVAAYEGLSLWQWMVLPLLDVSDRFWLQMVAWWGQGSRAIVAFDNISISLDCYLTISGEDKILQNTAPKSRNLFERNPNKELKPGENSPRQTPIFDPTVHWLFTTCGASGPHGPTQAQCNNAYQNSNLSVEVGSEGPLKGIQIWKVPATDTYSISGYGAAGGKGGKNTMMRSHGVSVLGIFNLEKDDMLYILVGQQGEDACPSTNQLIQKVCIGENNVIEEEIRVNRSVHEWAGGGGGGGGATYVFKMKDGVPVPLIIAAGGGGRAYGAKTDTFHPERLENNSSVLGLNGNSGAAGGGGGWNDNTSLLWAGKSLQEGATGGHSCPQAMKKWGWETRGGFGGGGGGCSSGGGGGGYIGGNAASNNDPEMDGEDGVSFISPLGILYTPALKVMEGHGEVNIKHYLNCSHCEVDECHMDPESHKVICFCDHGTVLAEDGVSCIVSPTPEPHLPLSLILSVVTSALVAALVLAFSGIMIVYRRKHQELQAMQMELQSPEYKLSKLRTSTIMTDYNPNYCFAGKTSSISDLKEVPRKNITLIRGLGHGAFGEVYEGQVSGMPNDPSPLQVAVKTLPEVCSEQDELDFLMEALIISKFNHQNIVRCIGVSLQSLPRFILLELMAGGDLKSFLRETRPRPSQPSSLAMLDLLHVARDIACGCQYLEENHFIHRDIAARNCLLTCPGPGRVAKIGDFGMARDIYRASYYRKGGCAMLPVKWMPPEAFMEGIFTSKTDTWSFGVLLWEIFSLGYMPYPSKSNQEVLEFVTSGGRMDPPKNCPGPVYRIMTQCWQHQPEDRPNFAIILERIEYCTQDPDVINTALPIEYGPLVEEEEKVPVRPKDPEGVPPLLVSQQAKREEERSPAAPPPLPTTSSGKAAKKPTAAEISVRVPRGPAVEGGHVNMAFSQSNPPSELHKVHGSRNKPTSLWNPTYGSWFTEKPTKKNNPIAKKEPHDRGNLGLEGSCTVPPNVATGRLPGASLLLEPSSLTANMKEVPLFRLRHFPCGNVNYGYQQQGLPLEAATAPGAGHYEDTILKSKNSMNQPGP

Turning to `CC1=C(C#N)C(c2ccc3c(c2)c(NC(=O)c2ccccc2C)nn3C)C(C#N)=C(C)N1` [BAY-974], the residual activity in assay [1] is 100%; in assay [2], 92%; in [3], 86%; in assay [4], 100%; in assay [5] it was 99%; in assay [6], 88%. The residual activity was 94% in [7]; 100% in assay [8]; 100% in assay [9]; 81% in [10]; 66% in assay [11]; 89% in assay [12]. Moreover, the residual activity in assay [13] and in assay [14] was 88% in each case.

Consider `CCc1ccccc1C(=O)Nc1n[nH]c2c(C)c(F)c(C3C(C#N)=C(C)N(C)C(C)=C3C#N)cc12` [BAY-3827], for which the residual activity in assay [1] was 82%; in assay [2], 36%; in [3], 0.3%; in [4] it was 98%; in [5], 40%; in [6] it was 100%. For the same molecule, the residual activity was 99% in assay [7]; 100% in assay [8]; 93% in [9]; 100% in assay [10]; 88% in assay [11]; 81% in [12]. The figures for the residual activity in [13] and in [14] were 43% and 100%, respectively.

(Values after ChEMBL document CHEMBL4507319 (2021).)
